For data set [1], the system named is CHLA-20 cells (ALK R1275Q, parental). Kind of data set: Cell viability assay (Cell Titer-Glo, 120 h). The data set is classed as cell-based, human. The following applies: cell viability after 120 h of treatment. (Cellular ATP, detected with luciferase, serves as a proxy for viable cell number.)
Data set [2] deals with CHLA-20 cells with ALK R1275Q/G1202R (CRISPR, in cis). Kind of data set: Cell viability assay (Cell Titer-Glo, 120 h). The class given is cell-based, human.
The test system of data set [3] is patients with ALK-driven relapsed/refractory neuroblastoma. Kind of data set: Serial ctDNA profiling (FoundationACT / FoundationOne Liquid CDx) and clinical response in the NANT phase 1 lorlatinib trial. The following applies: Group 3 (ALK undetectable) patients, all responded.
Description: Optional blood sampling was prospectively performed at predefined time points including pretreatment, after courses 2,4,6, and then after every 4th course and at disease progression. Patients <18 years of age were treated across 5 dose levels (cohort A1).
Blood samples for circulating tumor DNA profiling were drawn prior to enrollment, after courses 2, 4, and 6, and then after every 4 courses of treatment for the duration of patient participation in the trial. Forty-six patients were evaluable for this ctDNA study.
16-20 ml of whole blood was drawn from each patient and sent to Foundation Medicine in Streck tubes for ctDNA profiling.
Sequencing data were analyzed for the presence of short variants (single base substitutions and short insertions/deletions), copy number amplifications and homozygous deletions, and detectable gene rearrangements. […]
For most samples, we were able to estimate the ctDNA quantity using the comprehensive tumor fraction (CTF) method, using established computational methods[46],[47]. For samples in which no ALK was detected, we analyzed CTF to determine if any ctDNA was found in the cell-free DNA sequenced. For samples where CTF could not be calculated, MSAF was manually assessed to determine the fraction of ctDNA content[48]. […]

Experimental findings from article PMC10163008 (Nature Communications, 2023) are described below.

The term IC50 denotes the concentration at which inhibition is half-maximal.

Several values for one entry are separate records, joined by “and”; a condition that tells them apart may be missing. Equal entries are not always repeated.

For `C[C@H]1Oc2cc(cnc2N)-c2c(nn(C)c2C#N)CN(C)C(=O)c2ccc(F)cc21` [lorlatinib, (10R)-7-amino-12-fluoro-2,10,16-trimethyl-15-oxo-10,15,16,17-tetrahydro-2H-8,4-(metheno)pyrazolo[4,3-h][2,5,11]-benzoxadiazacyclotetradecine-3-carbonitrile], the IC50 came to 15 ± 4 nM in data set [1] and 318 ± 58 nM in data set [2] (cell viability after 120 h of treatment). For the same compound, the cell viability in data set [2] ([lorlatinib] 33, 120 h, exp #1-#9) is 104.185 and 94.5372 and 95.8368 and 98.7284 and 103.246 and 102.304 and 104.304 and 98.5652. For the same compound, the duration of response in data set [3] is listed as 4 to 48 cycles of therapy.
